According to the NIST ThermoML archive (doi:10.1016/j.jct.2004.12.008):
Numbers after ± are expanded uncertainties.

Experiment: xn = mol fraction of the nth substance listed
Details: 101 kPa, Liquid

O=[N+]([O-])c1ccccc1 [nitrobenzene] + c1ccccc1
Details	mass density [kg/m3]
293.15 K, x2 = 0	1202.95 ± 2.3
293.15 K, x2 = 0.0532	1187.99 ± 2.2
293.15 K, x2 = 0.1189	1169.24 ± 2
293.15 K, x2 = 0.1842	1150.3 ± 1.9
293.15 K, x2 = 0.2479	1131.5 ± 1.7
293.15 K, x2 = 0.3012	1115.52 ± 1.6
293.15 K, x2 = 0.3581	1098.17 ± 1.4
293.15 K, x2 = 0.425	1077.37 ± 1.3
293.15 K, x2 = 0.4891	1057.04 ± 1.1
293.15 K, x2 = 0.5311	1043.49 ± 1
293.15 K, x2 = 0.6023	1020.07 ± 0.83
293.15 K, x2 = 0.6521	1003.34 ± 0.7
293.15 K, x2 = 0.7198	980.14 ± 0.83
293.15 K, x2 = 0.7811	958.64 ± 1
293.15 K, x2 = 0.8534	932.66 ± 1.2
293.15 K, x2 = 0.9212	907.66 ± 1.4
303.15 K, x2 = 0	1193.56 ± 2.2
303.15 K, x2 = 0.0612	1176.18 ± 2.1
303.15 K, x2 = 0.1384	1153.92 ± 1.9
303.15 K, x2 = 0.1732	1143.76 ± 1.8
303.15 K, x2 = 0.2543	1119.7 ± 1.6
303.15 K, x2 = 0.3132	1101.89 ± 1.5
303.15 K, x2 = 0.3821	1080.7 ± 1.3
303.15 K, x2 = 0.4422	1061.84 ± 1.2
303.15 K, x2 = 0.4922	1045.9 ± 1
303.15 K, x2 = 0.5543	1025.75 ± 0.88
303.15 K, x2 = 0.6123	1006.56 ± 0.72
303.15 K, x2 = 0.6831	982.62 ± 0.81
303.15 K, x2 = 0.7534	958.28 ± 1
303.15 K, x2 = 0.8113	937.78 ± 1.2
303.15 K, x2 = 0.8713	916.1 ± 1.3
303.15 K, x2 = 0.9378	891.52 ± 1.5
313.15 K, x2 = 0	1183.37 ± 2.1
313.15 K, x2 = 0.0522	1168.46 ± 2
313.15 K, x2 = 0.1234	1147.88 ± 1.9
313.15 K, x2 = 0.1923	1127.63 ± 1.7
313.15 K, x2 = 0.2612	1107.04 ± 1.5
313.15 K, x2 = 0.3122	1091.57 ± 1.4
313.15 K, x2 = 0.3723	1073.06 ± 1.2
313.15 K, x2 = 0.4234	1057.08 ± 1.1
313.15 K, x2 = 0.4865	1037.03 ± 0.97
313.15 K, x2 = 0.5382	1020.3 ± 0.84
313.15 K, x2 = 0.6032	998.9 ± 0.68
313.15 K, x2 = 0.6632	978.75 ± 0.84
313.15 K, x2 = 0.7219	958.66 ± 1
313.15 K, x2 = 0.7932	933.72 ± 1.2
313.15 K, x2 = 0.8428	916.03 ± 1.3
313.15 K, x2 = 0.9247	886.12 ± 1.6
323.15 K, x2 = 0	1172.38 ± 2
323.15 K, x2 = 0.0479	1158.64 ± 1.9
323.15 K, x2 = 0.1387	1132.24 ± 1.7
323.15 K, x2 = 0.1842	1118.82 ± 1.6
323.15 K, x2 = 0.2487	1099.55 ± 1.5
323.15 K, x2 = 0.3286	1075.26 ± 1.3
323.15 K, x2 = 0.392	1055.64 ± 1.1
323.15 K, x2 = 0.435	1042.13 ± 1
323.15 K, x2 = 0.5023	1020.68 ± 0.84
323.15 K, x2 = 0.543	1007.49 ± 0.73
323.15 K, x2 = 0.592	991.42 ± 0.74
323.15 K, x2 = 0.6633	967.59 ± 0.93
323.15 K, x2 = 0.7328	943.85 ± 1.1
323.15 K, x2 = 0.7931	922.82 ± 1.3
323.15 K, x2 = 0.8538	901.23 ± 1.5
323.15 K, x2 = 0.9423	868.96 ± 1.7
333.15 K, x2 = 0	1160.59 ± 1.9
333.15 K, x2 = 0.0501	1146.17 ± 1.8
333.15 K, x2 = 0.1421	1119.35 ± 1.6
333.15 K, x2 = 0.1924	1104.47 ± 1.5
333.15 K, x2 = 0.2517	1086.72 ± 1.4
333.15 K, x2 = 0.3184	1066.47 ± 1.2
333.15 K, x2 = 0.3618	1053.11 ± 1.1
333.15 K, x2 = 0.4248	1033.47 ± 0.94
333.15 K, x2 = 0.4921	1012.12 ± 0.77
333.15 K, x2 = 0.5524	992.65 ± 0.73
333.15 K, x2 = 0.6013	976.62 ± 0.86
333.15 K, x2 = 0.664	955.73 ± 1
333.15 K, x2 = 0.723	935.71 ± 1.2
333.15 K, x2 = 0.7813	915.56 ± 1.3
333.15 K, x2 = 0.8342	896.97 ± 1.5
333.15 K, x2 = 0.9234	864.89 ± 1.8
343.15 K, x2 = 0	1148 ± 1.9
343.15 K, x2 = 0.0632	1129.76 ± 1.7
343.15 K, x2 = 0.1567	1102.42 ± 1.5
343.15 K, x2 = 0.219	1083.91 ± 1.3
343.15 K, x2 = 0.2678	1069.26 ± 1.2
343.15 K, x2 = 0.3347	1048.9 ± 1.1
343.15 K, x2 = 0.3972	1029.6 ± 0.91
343.15 K, x2 = 0.4581	1010.51 ± 0.76
343.15 K, x2 = 0.5124	993.23 ± 0.73
343.15 K, x2 = 0.5639	976.61 ± 0.86
343.15 K, x2 = 0.6384	952.15 ± 1.1
343.15 K, x2 = 0.7038	930.24 ± 1.2
343.15 K, x2 = 0.7598	911.15 ± 1.4
343.15 K, x2 = 0.8234	889.07 ± 1.6
343.15 K, x2 = 0.8824	868.19 ± 1.7
343.15 K, x2 = 0.9423	846.61 ± 1.9
